In paper PMC7407272, “Induction of Lysosome Membrane Permeabilization as a Therapeutic Strategy to Target Pancreatic Cancer Stem Cells” (Cancers, 2020):

Key:
Experiment in all cases: KINOMEscan
Type in all cases: binding
Settings in all cases: read-out: % Ctrl
ABL1(Q252H)-P = molecular target: T1, ABL1(Q252H)-P (Homo sapiens, UniProt P00519, Q252H)
T1 construct: purchased DiscoveRx KINOMEscan

PIK3CA(M1043I) = molecular target: T2, PIK3CA(M1043I) (Homo sapiens, UniProt P42336, M1043I)
T2 construct: purchased DiscoveRx KINOMEscan

ACVRL1 = molecular target: T3, ACVRL1 (Homo sapiens, UniProt P37023)
T3 construct: purchased DiscoveRx KINOMEscan

AMPK-alpha2 = molecular target: T4, AMPK-alpha2 (Homo sapiens, UniProt P54646)
T4 construct: purchased DiscoveRx KINOMEscan
T4 sequence (P54646 whole entry): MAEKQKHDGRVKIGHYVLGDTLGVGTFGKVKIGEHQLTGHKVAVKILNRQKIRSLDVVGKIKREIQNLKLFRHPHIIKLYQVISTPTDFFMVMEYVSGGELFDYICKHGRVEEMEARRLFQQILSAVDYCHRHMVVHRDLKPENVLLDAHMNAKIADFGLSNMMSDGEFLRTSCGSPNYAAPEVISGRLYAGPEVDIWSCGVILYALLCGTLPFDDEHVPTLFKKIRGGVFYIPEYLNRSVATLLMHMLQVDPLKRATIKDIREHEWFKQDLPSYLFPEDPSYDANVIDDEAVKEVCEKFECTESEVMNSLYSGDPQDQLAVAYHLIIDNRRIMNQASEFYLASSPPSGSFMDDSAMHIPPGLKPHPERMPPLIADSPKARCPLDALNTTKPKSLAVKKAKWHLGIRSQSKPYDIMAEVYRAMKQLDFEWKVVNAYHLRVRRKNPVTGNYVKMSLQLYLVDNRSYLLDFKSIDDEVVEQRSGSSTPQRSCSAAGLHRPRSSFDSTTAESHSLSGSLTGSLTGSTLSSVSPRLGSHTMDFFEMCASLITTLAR

HIPK3 = molecular target: T5, HIPK3 (Homo sapiens, UniProt Q9H422)
T5 construct: purchased DiscoveRx KINOMEscan

AURKB = molecular target: T6, AURKB (Homo sapiens, UniProt Q96GD4)
T6 construct: purchased DiscoveRx KINOMEscan

PLK1 = molecular target: T7, PLK1 (Homo sapiens, UniProt P53350)
T7 construct: purchased DiscoveRx KINOMEscan
T7 sequence (P53350 whole entry): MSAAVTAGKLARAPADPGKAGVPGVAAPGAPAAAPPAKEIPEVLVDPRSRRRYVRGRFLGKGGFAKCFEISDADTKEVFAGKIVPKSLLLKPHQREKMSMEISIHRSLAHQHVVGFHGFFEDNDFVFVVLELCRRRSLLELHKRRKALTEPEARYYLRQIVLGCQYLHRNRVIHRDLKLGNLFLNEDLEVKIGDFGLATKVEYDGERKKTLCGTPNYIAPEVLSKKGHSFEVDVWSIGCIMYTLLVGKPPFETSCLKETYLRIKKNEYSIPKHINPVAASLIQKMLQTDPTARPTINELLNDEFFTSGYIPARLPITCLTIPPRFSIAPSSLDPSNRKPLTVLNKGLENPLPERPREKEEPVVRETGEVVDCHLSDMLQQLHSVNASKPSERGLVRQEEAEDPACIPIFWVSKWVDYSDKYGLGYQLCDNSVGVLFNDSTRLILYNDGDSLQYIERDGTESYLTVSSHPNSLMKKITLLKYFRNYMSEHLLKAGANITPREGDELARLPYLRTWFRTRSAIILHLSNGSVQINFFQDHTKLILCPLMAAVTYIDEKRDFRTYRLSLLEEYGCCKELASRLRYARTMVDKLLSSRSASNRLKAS

IRAK4 = molecular target: T8, IRAK4 (Homo sapiens, UniProt Q9NWZ3)
T8 construct: purchased DiscoveRx KINOMEscan

CAMK1D = molecular target: T9, CAMK1D (Homo sapiens, UniProt Q8IU85)
T9 construct: purchased DiscoveRx KINOMEscan

RET(M918T) = molecular target: T10, RET(M918T) (Homo sapiens, UniProt P07949, M918T)
T10 construct: purchased DiscoveRx KINOMEscan

RIOK1 = molecular target: T11, RIOK1 (Homo sapiens, UniProt Q9BRS2)
T11 construct: purchased DiscoveRx KINOMEscan

RIPK1 = molecular target: T12, RIPK1 (Homo sapiens, UniProt Q13546)
T12 construct: purchased DiscoveRx KINOMEscan

LCK = molecular target: T13, LCK (Homo sapiens, UniProt P06239)
T13 construct: purchased DiscoveRx KINOMEscan

CDK8 = molecular target: T14, CDK8 (Homo sapiens, UniProt P49336)
T14 construct: purchased DiscoveRx KINOMEscan

RSK2(KD2-C-t.) = molecular target: T15, RSK2(KD2-C-t.) (Homo sapiens, UniProt P51812)
T15 construct: RSK2(KD2-C-t.); purchased DiscoveRx KINOMEscan
T15 sequence (P51812 398-740 limits assumed): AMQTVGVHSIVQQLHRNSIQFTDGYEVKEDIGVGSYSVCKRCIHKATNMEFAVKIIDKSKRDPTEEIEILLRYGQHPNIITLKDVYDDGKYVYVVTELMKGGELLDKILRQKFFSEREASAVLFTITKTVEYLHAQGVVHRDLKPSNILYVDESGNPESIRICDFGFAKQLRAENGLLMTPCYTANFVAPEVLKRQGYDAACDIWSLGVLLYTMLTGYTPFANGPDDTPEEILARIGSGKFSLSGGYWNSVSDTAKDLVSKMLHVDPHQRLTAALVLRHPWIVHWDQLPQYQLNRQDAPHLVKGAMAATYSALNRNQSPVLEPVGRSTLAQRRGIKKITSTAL

SGK3 = molecular target: T16, SGK3 (Homo sapiens, UniProt Q96BR1)
T16 construct: purchased DiscoveRx KINOMEscan

CSNK1G3 = molecular target: T17, CSNK1G3 (Homo sapiens, UniProt Q9Y6M4)
T17 construct: purchased DiscoveRx KINOMEscan

SRPK3 = molecular target: T18, SRPK3 (Homo sapiens, UniProt Q9UPE1)
T18 construct: purchased DiscoveRx KINOMEscan

STK39 = molecular target: T19, STK39 (Homo sapiens, UniProt Q9UEW8)
T19 construct: purchased DiscoveRx KINOMEscan

TEC = molecular target: T20, TEC (Homo sapiens, UniProt P42680)
T20 construct: purchased DiscoveRx KINOMEscan

MUSK = molecular target: T21, MUSK (Homo sapiens, UniProt O15146)
T21 construct: purchased DiscoveRx KINOMEscan
T21 sequence (O15146 24-869): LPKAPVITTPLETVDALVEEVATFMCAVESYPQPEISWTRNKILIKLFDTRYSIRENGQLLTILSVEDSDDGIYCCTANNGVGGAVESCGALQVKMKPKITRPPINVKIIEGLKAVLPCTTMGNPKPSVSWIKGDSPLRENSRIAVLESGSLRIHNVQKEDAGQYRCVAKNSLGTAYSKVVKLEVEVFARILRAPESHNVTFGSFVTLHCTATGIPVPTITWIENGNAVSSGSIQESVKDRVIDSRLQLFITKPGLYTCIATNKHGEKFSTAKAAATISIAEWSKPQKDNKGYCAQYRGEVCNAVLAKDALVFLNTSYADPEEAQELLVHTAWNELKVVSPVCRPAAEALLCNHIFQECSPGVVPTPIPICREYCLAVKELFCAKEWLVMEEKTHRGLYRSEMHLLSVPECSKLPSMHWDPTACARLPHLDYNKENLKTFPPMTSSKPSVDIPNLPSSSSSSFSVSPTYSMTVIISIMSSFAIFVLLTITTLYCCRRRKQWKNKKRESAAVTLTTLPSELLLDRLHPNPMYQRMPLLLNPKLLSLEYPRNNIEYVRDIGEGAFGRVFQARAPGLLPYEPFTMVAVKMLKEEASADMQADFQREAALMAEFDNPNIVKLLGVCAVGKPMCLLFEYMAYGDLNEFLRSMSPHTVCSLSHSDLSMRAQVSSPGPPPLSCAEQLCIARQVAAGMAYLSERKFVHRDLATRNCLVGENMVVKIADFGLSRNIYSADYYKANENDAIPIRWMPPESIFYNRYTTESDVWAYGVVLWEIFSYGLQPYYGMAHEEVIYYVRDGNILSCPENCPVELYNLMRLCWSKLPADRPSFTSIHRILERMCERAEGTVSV

EGFR(T790M) = molecular target: T22, EGFR(T790M) (Homo sapiens, UniProt P00533, T790M)
T22 construct: purchased DiscoveRx KINOMEscan
T22 sequence (P00533 25-1210 T790M): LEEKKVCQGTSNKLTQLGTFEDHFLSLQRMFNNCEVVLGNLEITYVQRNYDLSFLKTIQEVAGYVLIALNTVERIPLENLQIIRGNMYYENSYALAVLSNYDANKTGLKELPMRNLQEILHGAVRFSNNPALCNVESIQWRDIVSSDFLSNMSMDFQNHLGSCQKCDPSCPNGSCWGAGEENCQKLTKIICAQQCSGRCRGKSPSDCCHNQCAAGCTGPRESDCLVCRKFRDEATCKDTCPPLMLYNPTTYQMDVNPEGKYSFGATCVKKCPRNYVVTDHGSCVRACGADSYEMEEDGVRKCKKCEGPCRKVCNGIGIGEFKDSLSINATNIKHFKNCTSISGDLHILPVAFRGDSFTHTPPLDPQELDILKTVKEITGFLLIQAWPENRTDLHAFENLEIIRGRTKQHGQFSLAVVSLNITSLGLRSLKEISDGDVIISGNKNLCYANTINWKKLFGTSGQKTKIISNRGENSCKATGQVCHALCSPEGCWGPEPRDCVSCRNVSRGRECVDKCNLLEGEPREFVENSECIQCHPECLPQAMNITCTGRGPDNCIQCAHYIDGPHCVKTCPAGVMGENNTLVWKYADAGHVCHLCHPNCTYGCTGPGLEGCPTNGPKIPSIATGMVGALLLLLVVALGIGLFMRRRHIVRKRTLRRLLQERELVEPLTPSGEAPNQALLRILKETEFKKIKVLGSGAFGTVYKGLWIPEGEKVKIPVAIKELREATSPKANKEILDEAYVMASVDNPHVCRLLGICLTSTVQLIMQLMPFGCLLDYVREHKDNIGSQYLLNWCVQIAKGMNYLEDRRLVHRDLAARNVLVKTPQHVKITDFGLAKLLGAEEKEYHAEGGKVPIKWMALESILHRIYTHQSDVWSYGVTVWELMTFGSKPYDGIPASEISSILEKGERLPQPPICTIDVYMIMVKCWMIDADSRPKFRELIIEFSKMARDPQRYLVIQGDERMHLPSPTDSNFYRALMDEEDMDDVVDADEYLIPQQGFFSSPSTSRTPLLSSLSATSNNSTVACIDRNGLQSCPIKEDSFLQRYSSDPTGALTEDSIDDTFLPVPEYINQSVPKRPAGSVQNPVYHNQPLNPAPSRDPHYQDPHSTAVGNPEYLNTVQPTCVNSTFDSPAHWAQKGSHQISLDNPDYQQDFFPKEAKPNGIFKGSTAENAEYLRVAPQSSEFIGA

EIF2AK1 = molecular target: T23, EIF2AK1 (Homo sapiens, UniProt Q9BQI3)
T23 construct: purchased DiscoveRx KINOMEscan

NEK1 = molecular target: T24, NEK1 (Homo sapiens, UniProt Q96PY6)
T24 construct: purchased DiscoveRx KINOMEscan

NEK4 = molecular target: T25, NEK4 (Homo sapiens, UniProt P51957)
T25 construct: purchased DiscoveRx KINOMEscan

EPHA8 = molecular target: T26, EPHA8 (Homo sapiens, UniProt P29322)
T26 construct: purchased DiscoveRx KINOMEscan

WEE1 = molecular target: T27, WEE1 (Homo sapiens, UniProt P30291)
T27 construct: purchased DiscoveRx KINOMEscan
T27 sequence (P30291 whole entry): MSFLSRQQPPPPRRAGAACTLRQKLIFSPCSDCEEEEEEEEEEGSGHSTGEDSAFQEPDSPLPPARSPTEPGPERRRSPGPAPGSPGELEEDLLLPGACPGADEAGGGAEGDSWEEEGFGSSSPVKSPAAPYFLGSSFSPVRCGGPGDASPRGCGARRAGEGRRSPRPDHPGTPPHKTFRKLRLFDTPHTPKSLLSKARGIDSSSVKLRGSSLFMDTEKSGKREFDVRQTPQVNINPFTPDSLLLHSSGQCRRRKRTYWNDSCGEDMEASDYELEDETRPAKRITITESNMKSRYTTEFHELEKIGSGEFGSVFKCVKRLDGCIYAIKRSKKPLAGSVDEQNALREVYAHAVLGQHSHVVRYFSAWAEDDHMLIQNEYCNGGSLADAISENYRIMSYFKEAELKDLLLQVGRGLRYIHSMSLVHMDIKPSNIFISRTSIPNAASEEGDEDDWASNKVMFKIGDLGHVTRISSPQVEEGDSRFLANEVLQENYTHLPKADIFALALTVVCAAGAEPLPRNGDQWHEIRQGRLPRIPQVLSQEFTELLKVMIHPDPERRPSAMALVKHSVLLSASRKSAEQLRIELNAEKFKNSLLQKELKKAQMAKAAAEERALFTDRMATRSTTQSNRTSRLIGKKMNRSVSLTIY

ERK8 = molecular target: T28, ERK8 (Homo sapiens, UniProt Q8TD08)
T28 construct: purchased DiscoveRx KINOMEscan
T28 sequence (Q8TD08 whole entry): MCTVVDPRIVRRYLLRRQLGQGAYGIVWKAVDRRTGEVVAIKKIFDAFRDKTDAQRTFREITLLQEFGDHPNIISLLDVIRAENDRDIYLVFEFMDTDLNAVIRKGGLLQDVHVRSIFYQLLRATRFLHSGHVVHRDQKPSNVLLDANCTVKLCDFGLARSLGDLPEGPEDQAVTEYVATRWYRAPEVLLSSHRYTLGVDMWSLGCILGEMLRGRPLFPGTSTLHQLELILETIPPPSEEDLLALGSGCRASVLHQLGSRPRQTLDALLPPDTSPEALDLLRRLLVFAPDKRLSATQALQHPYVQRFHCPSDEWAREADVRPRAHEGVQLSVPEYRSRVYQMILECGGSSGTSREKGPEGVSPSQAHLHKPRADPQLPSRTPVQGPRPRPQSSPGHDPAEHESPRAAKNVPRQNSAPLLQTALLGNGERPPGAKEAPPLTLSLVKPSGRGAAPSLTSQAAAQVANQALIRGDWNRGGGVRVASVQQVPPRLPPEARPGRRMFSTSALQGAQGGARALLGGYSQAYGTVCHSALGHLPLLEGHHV

YSK4 = molecular target: T29, YSK4 (Homo sapiens, UniProt Q56UN5)
T29 construct: purchased DiscoveRx KINOMEscan

CN1CCC(CNc2ccc3ncc(C(=O)Nc4cccc(OC(F)(F)F)c4)n3n2)CC1 [Cpd 2]
remaining binding at 1 µM (ABL1(Q252H)-P): 100% | remaining binding at 1 µM (PIK3CA(M1043I)): 90% | remaining binding at 1 µM (ACVRL1): 100% | remaining binding at 1 µM (AMPK-alpha2): 100% | remaining binding at 1 µM (HIPK3): 100% | remaining binding at 1 µM (AURKB): 97% | remaining binding at 1 µM (PLK1): 98% | remaining binding at 1 µM (IRAK4): 100% | remaining binding at 1 µM (CAMK1D): 94% | remaining binding at 1 µM (RET(M918T)): 100% | remaining binding at 1 µM (RIOK1): 76% | remaining binding at 1 µM (RIPK1): 100% | remaining binding at 1 µM (LCK): 77% | remaining binding at 1 µM (CDK8): 58% | remaining binding at 1 µM (RSK2(KD2-C-t.)): 100% | remaining binding at 1 µM (SGK3): 100% | remaining binding at 1 µM (CSNK1G3): 100% | remaining binding at 1 µM (SRPK3): 77% | remaining binding at 1 µM (STK39): 99% | remaining binding at 1 µM (TEC): 96% | remaining binding at 1 µM (MUSK): 99% | remaining binding at 1 µM (EGFR(T790M)): 96% | remaining binding at 1 µM (EIF2AK1): 95% | remaining binding at 1 µM (NEK1): 99% | remaining binding at 1 µM (NEK4): 100% | remaining binding at 1 µM (EPHA8): 100% | remaining binding at 1 µM (WEE1): 96% | remaining binding at 1 µM (ERK8): 96% | remaining binding at 1 µM (YSK4): 71%
